Results as given in publication PMC6272684, “Synthesis, Antiproliferative and Antifungal Activities of 1,2,3-Triazole-Substituted Carnosic Acid and Carnosol Derivatives” (Molecules, 2015).
Values joined by “and” are separate entries in the source; they are usually repeats but may differ in a detail not shown here. Equal entries are not always repeated.

Key:
C. albicans ATCC 10231 = assay: Antifungal broth microdilution (CLSI M27-A3), growth inhibition; assay type: cell-based, Candida albicans; details: for MIC50 (minimum concentration to inhibit 50% of fungal growth), C. albicans: C. albicans ATCC 10231
Method: (§1) The antifungal properties of compounds 1–24 against two clinical important fungal species, C. albicans ATCC 10231 and C. neoformans ATCC 32264 were investigated. Results were expressed as the percentages of inhibition of each fungus in the range 250–3.9 μg∙mL^−1 by using the standardized microbroth dilution method M-27A3 of Clinical and Laboratory Standards Institute which assures reliable and reproducible results.
(§2) For the antifungal evaluation, standardized strains from the American Type Culture Collection (ATCC), Rockville, MD, USA, were used. The microorganisms included yeasts (Candida albicans ATCC 10231 and Cryptococcus neoformans ATCC 32264). Strains were grown on Sabouraud-chloramphenicol agar slants for 48 h at 30 °C, maintained on slopes of Sabouraud-dextrose agar (SDA, Oxoid), and subcultured every 15 days to prevent pleomorphic transformations. Inocula of cell or spore suspensions were obtained according to reported procedures and adjusted to 1–5 × 10^3 cells/spores with colony forming units (CFU)/mL [29].
(§3) Broth microdilution techniques were performed in 96-well microplates according to the Clinical and Laboratory Standards Institute Reference Method for Broth Dilution Antifungal Susceptibility Testing of Yeasts, Approved Standard M27-A3 [29]. For the assay, compound test wells (CTWs) were prepared with stock solutions of each compound in DMSO (maximum concentration ≤1%), diluted with RPMI-1640, to final concentrations of 250–3.9 μg∙mL^−1. An inoculum suspension (100 μL) was added to each well (final volume in the well = 200 μL). A growth control well (GCW) (containing medium, inoculum, and the same amount of DMSO used in a CTW, but compound-free) and a sterility control well (SCW) (sample, medium, and sterile water instead of inoculum) were included for each fungus tested. Microtiter trays were incubated in a moist, dark chamber at 30 °C for 48 h for both yeasts. Microplates were read in a VERSA Max microplate reader (Molecular Devices, Sunnyvale, CA, USA). Amphotericin B (Sigma-Aldrich) was used as positive control. Tests were performed in triplicate. Reduction of growth for each compound concentration was calculated as follows: % of inhibition = 100 − (OD 405 CTW − OD 405 SCW)/(OD 405 GCW − OD 405 SCW). The means ± SEM were the results of triplicate tests. Three endpoints were defined from the assay explained above and the dose-response curves. Minimum Inhibitory concentration (MIC) resulting in total fungal growth inhibition was named MIC100 while MIC50 was defined as the minimum concentration that inhibits 50% of the fungal growth.

C. neoformans ATCC 32264 = assay: as above; assay type: cell-based, Cryptococcus neoformans; details: for MIC50 (minimum concentration to inhibit 50% of fungal growth), C. neoformans: C. neoformans ATCC 32264
Method: as §1, §2, §3

CC(C)c1cc2c(c(OC(=O)CCCc3cn(Cc4ccc([N+](=O)[O-])cc4)nn3)c1OC(=O)CCCc1cn(Cc3ccc([N+](=O)[O-])cc3)nn1)C13CCCC(C)(C)C1CC2OC3=O (stereo not drawn) [Compound 24, (7β)-11,12-O-(4-(1-(4-nitrobenzyl)-1H-1,2,3-triazol-4-yl)-butanoyloxy)-7,20-epoxyabieta-8,11,13-trien-20-one]
Inhibition percentage against C. albicans ATCC 10231 (C. albicans ATCC 10231; 3.9 μg∙mL^−1, 48 h): 0.0%
Inhibition percentage against C. albicans ATCC 10231 (C. albicans ATCC 10231; 7.8 μg∙mL^−1, 48 h): 0.0%
Inhibition percentage against C. albicans ATCC 10231 (C. albicans ATCC 10231; 15.6 μg∙mL^−1, 48 h): 0.0%
Inhibition percentage against C. albicans ATCC 10231 (C. albicans ATCC 10231; 62.5 μg∙mL^−1, 48 h): 4.8 ± 0.6%
Inhibition percentage against C. albicans ATCC 10231 (C. albicans ATCC 10231; 125 μg∙mL^−1, 48 h): 14.3 ± 2.0%
Inhibition percentage against C. albicans ATCC 10231 (C. albicans ATCC 10231; 250 μg∙mL^−1, 48 h): 29.8 ± 1.9%
Inhibition percentage against C. albicans ATCC 10231 (C. albicans ATCC 10231; 31. μg∙mL^−1, 48 h): 3.4 ± 0.5%
MIC50 (minimum concentration to inhibit 50% of fungal growth), C. albicans (C. albicans ATCC 10231): >250 µg/mL
Inhibition percentage against C. neoformans ATCC 32264 (C. neoformans ATCC 32264; 3.9 μg∙mL^−1, 48 h): 4.9 ± 1.4%
Inhibition percentage against C. neoformans ATCC 32264 (C. neoformans ATCC 32264; 7.8 μg∙mL^−1, 48 h): 15.4 ± 0.1%
Inhibition percentage against C. neoformans ATCC 32264 (C. neoformans ATCC 32264; 15.6 μg∙mL^−1, 48 h): 21.0 ± 0.1%
Inhibition percentage against C. neoformans ATCC 32264 (C. neoformans ATCC 32264; 31.2 μg∙mL^−1, 48 h): 24.3 ± 0.5%
Inhibition percentage against C. neoformans ATCC 32264 (C. neoformans ATCC 32264; 62.5 μg∙mL^−1, 48 h): 27.3 ± 0.7%
Inhibition percentage against C. neoformans ATCC 32264 (C. neoformans ATCC 32264; 125 μg∙mL^−1, 48 h): 31.7 ± 1.6%
Inhibition percentage against C. neoformans ATCC 32264 (C. neoformans ATCC 32264; 250 μg∙mL^−1, 48 h): 45.8 ± 2.0%
MIC50 (minimum concentration to inhibit 50% of fungal growth), C. neoformans (C. neoformans ATCC 32264): >250 µg/mL

COC(=O)C12CCCC(C)(C)C1CCc1cc(C(C)C)c(OC(=O)CCc3cn(Cc4ccc([N+](=O)[O-])cc4)nn3)c(OC(=O)CCc3cn(Cc4ccc([N+](=O)[O-])cc4)nn3)c12 (stereo not drawn) [Compound 15, Methyl(11,12-O-(3-(1-(4-nitrobenzyl)-1H-1,2,3-triazol-4-yl)-propanoyloxy)-abieta-8,11,13-triene)-20-oate]
Inhibition percentage against C. albicans ATCC 10231 (C. albicans ATCC 10231; 3.9 μg∙mL^−1, 48 h): 0.0%
Inhibition percentage against C. albicans ATCC 10231 (C. albicans ATCC 10231; 7.8 μg∙mL^−1, 48 h): 0.0%
Inhibition percentage against C. albicans ATCC 10231 (C. albicans ATCC 10231; 15.6 μg∙mL^−1, 48 h): 2.6 ± 0.3%
Inhibition percentage against C. albicans ATCC 10231 (C. albicans ATCC 10231; 62.5 μg∙mL^−1, 48 h): 8.2 ± 0.3%
Inhibition percentage against C. albicans ATCC 10231 (C. albicans ATCC 10231; 125 μg∙mL^−1, 48 h): 15.2 ± 2.8%
Inhibition percentage against C. albicans ATCC 10231 (C. albicans ATCC 10231; 250 μg∙mL^−1, 48 h): 33.4 ± 2.7%
Inhibition percentage against C. albicans ATCC 10231 (C. albicans ATCC 10231; 31. μg∙mL^−1, 48 h): 3.0 ± 1.1%
MIC50 (minimum concentration to inhibit 50% of fungal growth), C. albicans (C. albicans ATCC 10231): >250 µg/mL
Inhibition percentage against C. neoformans ATCC 32264 (C. neoformans ATCC 32264; 3.9 μg∙mL^−1, 48 h): 0.0%
Inhibition percentage against C. neoformans ATCC 32264 (C. neoformans ATCC 32264; 7.8 μg∙mL^−1, 48 h): 0.0%
Inhibition percentage against C. neoformans ATCC 32264 (C. neoformans ATCC 32264; 15.6 μg∙mL^−1, 48 h): 10.0 ± 0.6%
Inhibition percentage against C. neoformans ATCC 32264 (C. neoformans ATCC 32264; 31.2 μg∙mL^−1, 48 h): 13.0 ± 1.4%
Inhibition percentage against C. neoformans ATCC 32264 (C. neoformans ATCC 32264; 62.5 μg∙mL^−1, 48 h): 15.5 ± 2.0%
Inhibition percentage against C. neoformans ATCC 32264 (C. neoformans ATCC 32264; 125 μg∙mL^−1, 48 h): 22.0 ± 2.7%
Inhibition percentage against C. neoformans ATCC 32264 (C. neoformans ATCC 32264; 250 μg∙mL^−1, 48 h): 45.4 ± 3.0%
MIC50 (minimum concentration to inhibit 50% of fungal growth), C. neoformans (C. neoformans ATCC 32264): >250 µg/mL

COC(=O)C12CCCC(C)(C)C1CCc1cc(C(C)C)c(OC(=O)CCCc3cn(Cc4ccc(Br)cc4)nn3)c(OC(=O)CCCc3cn(Cc4ccc(Br)cc4)nn3)c12 (stereo not drawn) [Compound 14, Methyl(11,12-O-(4-(1-(4-bromobenzyl)-1H-1,2,3-triazol-4-yl)-butanoyloxy)-abieta-8,11,13-triene)-20-oate]
Inhibition percentage against C. albicans ATCC 10231 (C. albicans ATCC 10231; 3.9 μg∙mL^−1, 48 h): 1.3 ± 0.2%
Inhibition percentage against C. albicans ATCC 10231 (C. albicans ATCC 10231; 7.8 μg∙mL^−1, 48 h): 1.3 ± 0.3%
Inhibition percentage against C. albicans ATCC 10231 (C. albicans ATCC 10231; 15.6 μg∙mL^−1, 48 h): 1.9 ± 0.3%
Inhibition percentage against C. albicans ATCC 10231 (C. albicans ATCC 10231; 62.5 μg∙mL^−1, 48 h): 9.3 ± 1.5%
Inhibition percentage against C. albicans ATCC 10231 (C. albicans ATCC 10231; 125 μg∙mL^−1, 48 h): 13.3 ± 0.6%
Inhibition percentage against C. albicans ATCC 10231 (C. albicans ATCC 10231; 250 μg∙mL^−1, 48 h): 29.1 ± 2.5%
Inhibition percentage against C. albicans ATCC 10231 (C. albicans ATCC 10231; 31. μg∙mL^−1, 48 h): 6.3 ± 1.5%
MIC50 (minimum concentration to inhibit 50% of fungal growth), C. albicans (C. albicans ATCC 10231): >250 µg/mL
Inhibition percentage against C. neoformans ATCC 32264 (C. neoformans ATCC 32264; 3.9 μg∙mL^−1, 48 h): 0.0%
Inhibition percentage against C. neoformans ATCC 32264 (C. neoformans ATCC 32264; 7.8 μg∙mL^−1, 48 h): 4.5 ± 0.2%
Inhibition percentage against C. neoformans ATCC 32264 (C. neoformans ATCC 32264; 15.6 μg∙mL^−1, 48 h): 10.1 ± 1.0%
Inhibition percentage against C. neoformans ATCC 32264 (C. neoformans ATCC 32264; 31.2 μg∙mL^−1, 48 h): 12.0 ± 1.2%
Inhibition percentage against C. neoformans ATCC 32264 (C. neoformans ATCC 32264; 62.5 μg∙mL^−1, 48 h): 16.9 ± 1.1%
Inhibition percentage against C. neoformans ATCC 32264 (C. neoformans ATCC 32264; 125 μg∙mL^−1, 48 h): 30.1 ± 1.4%
Inhibition percentage against C. neoformans ATCC 32264 (C. neoformans ATCC 32264; 250 μg∙mL^−1, 48 h): 57.2%–67.4% and 67.4 ± 1.7%
MIC50 (minimum concentration to inhibit 50% of fungal growth), C. neoformans (C. neoformans ATCC 32264): 250 µg/mL
